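Method: 48-hour compound exposure of cells in 96-well plates, five concentrations, linear interpolation of endpoints. GI50: concentration for 50% inhibition of growth. At the TGI there is no net growth.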
How the values were obtained:
Assay in all cases: growth of human tumour cells (NCI), 48 h
EKVX NSCLC = test system: EKVX NSCLC
HOP-92 NSCLC = test system: HOP-92 NSCLC
OVCAR-4 ovarian = test system: OVCAR-4 ovarian
A498 renal = test system: A498 renal
SW-620 colon = test system: SW-620 colon
NCI-H23 lung = test system: NCI-H23 lung
KM12 colon = test system: KM12 colon
IGROV1 ovarian = test system: IGROV1 ovarian
HOP-62 NSCLC = test system: HOP-62 NSCLC
ACHN renal = test system: ACHN renal
OVCAR-5 ovarian = test system: OVCAR-5 ovarian
HCT-15 colon = test system: HCT-15 colon
SF-295 CNS = test system: SF-295 CNS
NCI-H460 lung = test system: NCI-H460 lung
NCI-H522 lung = test system: NCI-H522 lung
BT-549 breast = test system: BT-549 breast
786-0 renal = test system: 786-0 renal
SNB-75 CNS = test system: SNB-75 CNS
LOX IMVI melanoma = test system: LOX IMVI melanoma
SK-MEL-5 melanoma = test system: SK-MEL-5 melanoma
MALME-3M melanoma = test system: MALME-3M melanoma
K-562 leukemia = test system: K-562 leukemia
MOLT-4 leukemia = test system: MOLT-4 leukemia
HS 578T breast = test system: HS 578T breast
T-47D breast = test system: T-47D breast
SK-OV-3 ovarian = test system: SK-OV-3 ovarian
SNB-19 CNS = test system: SNB-19 CNS
SK-MEL-28 melanoma = test system: SK-MEL-28 melanoma
COLO 205 colon = test system: COLO 205 colon
A549 NSCLC = test system: A549 NSCLC
OVCAR-8 ovarian = test system: OVCAR-8 ovarian
SF-539 CNS = test system: SF-539 CNS
NCI/ADR-RES ovarian = test system: NCI/ADR-RES ovarian
SK-MEL-2 melanoma = test system: SK-MEL-2 melanoma
HT29 colon = test system: HT29 colon
MDA-MB-231 breast = test system: MDA-MB-231 breast
DU-145 prostate = test system: DU-145 prostate
RPMI-8226 leukemia = test system: RPMI-8226 leukemia
NCI-H226 lung = test system: NCI-H226 lung
TK-10 renal = test system: TK-10 renal
SN12C renal = test system: SN12C renal
CAKI-1 renal = test system: CAKI-1 renal
RXF 393 renal = test system: RXF 393 renal
HCC-2998 colon = test system: HCC-2998 colon
UACC-62 melanoma = test system: UACC-62 melanoma
SF-268 CNS = test system: SF-268 CNS
SR leukemia = test system: SR leukemia
UO-31 renal = test system: UO-31 renal
HL-60(TB) leukemia = test system: HL-60(TB) leukemia
UACC-257 melanoma = test system: UACC-257 melanoma
HCT-116 colon = test system: HCT-116 colon
OVCAR-3 ovarian = test system: OVCAR-3 ovarian
CCRF-CEM leukemia = test system: CCRF-CEM leukemia
PC-3 prostate = test system: PC-3 prostate

O=C(Nc1ccc(-c2nc(-c3cccc(O)c3)c(-c3ccnc(Br)c3)[nH]2)cc1)c1ccccc1 gave a GI50 (EKVX NSCLC) of 2.14 µM, a TGI (EKVX NSCLC) of 6.19 µM and a GI50 (HOP-92 NSCLC) of 1.84 µM. The TGI (HOP-92 NSCLC) was 4.73 µM, the GI50 (OVCAR-4 ovarian) was 2.27 µM and the TGI (OVCAR-4 ovarian) was 6.09 µM. The GI50 (A498 renal) was 1.66 µM, the TGI (A498 renal) was 4.53 µM and the GI50 (SW-620 colon) was 2.37 µM. For the same compound, the TGI (SW-620 colon) was 7.17 µM, the GI50 (NCI-H23 lung) was 2.04 µM and the TGI (NCI-H23 lung) was 4.78 µM. The GI50 (KM12 colon) was 2.44 µM, the TGI (KM12 colon) was 7.13 µM and the GI50 (IGROV1 ovarian) was 2.62 µM. The TGI (IGROV1 ovarian) was 6.53 µM, the GI50 (HOP-62 NSCLC) was 2.54 µM and the TGI (HOP-62 NSCLC) was 9.05 µM. For the same compound, the GI50 (ACHN renal) was 2.43 µM, the TGI (ACHN renal) was 7.42 µM and the GI50 (OVCAR-5 ovarian) was 2.92 µM. For the same compound, the TGI (OVCAR-5 ovarian) was 19.1 µM, the GI50 (HCT-15 colon) was 2.01 µM and the TGI (HCT-15 colon) was 7.29 µM. For the same compound, the GI50 (SF-295 CNS) was 0.34 µM, the TGI (SF-295 CNS) was 1.16 µM and the GI50 (NCI-H460 lung) was 2.45 µM. The TGI (NCI-H460 lung) was 6.52 µM, the GI50 (NCI-H522 lung) was 2.01 µM and the TGI (NCI-H522 lung) was 5.35 µM. The GI50 (BT-549 breast) was 1.8 µM, the TGI (BT-549 breast) was 5.79 µM and the GI50 (786-0 renal) was 1.08 µM. It also gave a TGI (786-0 renal) of 4.03 µM, a GI50 (SNB-75 CNS) of 0.286 µM and a TGI (SNB-75 CNS) of 3.37 µM. The GI50 (LOX IMVI melanoma) was 1.52 µM, the TGI (LOX IMVI melanoma) was 3.95 µM and the GI50 (SK-MEL-5 melanoma) was 1.79 µM. It also gave a TGI (SK-MEL-5 melanoma) of 3.23 µM, a GI50 (MALME-3M melanoma) of 1.83 µM and a TGI (MALME-3M melanoma) of 4.71 µM. For the same compound, the GI50 (K-562 leukemia) was 2.12 µM, the TGI (K-562 leukemia) was over 100 µM and the GI50 (MOLT-4 leukemia) was 2 µM. It also gave a TGI (MOLT-4 leukemia) of 7.48 µM, a GI50 (HS 578T breast) of 0.308 µM and a TGI (HS 578T breast) of 0.946 µM. It also gave a GI50 (T-47D breast) of 1.73 µM, a TGI (T-47D breast) of 4.73 µM and a GI50 (SK-OV-3 ovarian) of 2.68 µM. It also gave a TGI (SK-OV-3 ovarian) of 7.09 µM, a GI50 (SNB-19 CNS) of 1.83 µM and a TGI (SNB-19 CNS) of 7.14 µM. The GI50 (SK-MEL-28 melanoma) was 1.76 µM, the TGI (SK-MEL-28 melanoma) was 4.82 µM and the GI50 (COLO 205 colon) was 1.99 µM. The TGI (COLO 205 colon) was 4.84 µM, the GI50 (A549 NSCLC) was 2.95 µM and the TGI (A549 NSCLC) was over 100 µM. It also gave a GI50 (OVCAR-8 ovarian) of 2.6 µM, a TGI (OVCAR-8 ovarian) of over 100 µM and a GI50 (SF-539 CNS) of 1.51 µM. It also gave a TGI (SF-539 CNS) of 4.78 µM, a GI50 (NCI/ADR-RES ovarian) of 3 µM and a TGI (NCI/ADR-RES ovarian) of 12.4 µM. It also gave a GI50 (SK-MEL-2 melanoma) of 2.02 µM, a TGI (SK-MEL-2 melanoma) of 5.46 µM and a GI50 (HT29 colon) of 2.85 µM. It also gave a TGI (HT29 colon) of over 100 µM, a GI50 (MDA-MB-231 breast) of 2.59 µM and a TGI (MDA-MB-231 breast) of 17.1 µM. It also gave a GI50 (DU-145 prostate) of 2.76 µM, a TGI (DU-145 prostate) of 8.74 µM and a GI50 (RPMI-8226 leukemia) of 0.595 µM. For the same compound, the TGI (RPMI-8226 leukemia) was 2.89 µM, the GI50 (NCI-H226 lung) was 2.33 µM and the TGI (NCI-H226 lung) was 6.53 µM. It also gave a GI50 (TK-10 renal) of 2.92 µM, a TGI (TK-10 renal) of 8.03 µM and a GI50 (SN12C renal) of 2.68 µM. For the same compound, the TGI (SN12C renal) was 8.95 µM, the GI50 (CAKI-1 renal) was 1.98 µM and the TGI (CAKI-1 renal) was 5.8 µM. The GI50 (RXF 393 renal) was 0.294 µM, the TGI (RXF 393 renal) was 0.869 µM and the GI50 (HCC-2998 colon) was 2.27 µM. It also gave a TGI (HCC-2998 colon) of 6.37 µM, a GI50 (UACC-62 melanoma) of 1.73 µM and a TGI (UACC-62 melanoma) of 4.09 µM. It also gave a GI50 (SF-268 CNS) of 2.21 µM, a TGI (SF-268 CNS) of 6.95 µM and a GI50 (SR leukemia) of 1.26 µM. The TGI (SR leukemia) was over 100 µM, the GI50 (UO-31 renal) was 2.56 µM and the TGI (UO-31 renal) was 6.56 µM. The GI50 (HL-60(TB) leukemia) was 1.37 µM, the TGI (HL-60(TB) leukemia) was 6.82 µM and the GI50 (UACC-257 melanoma) was 2.21 µM. For the same compound, the TGI (UACC-257 melanoma) was 5.84 µM, the GI50 (HCT-116 colon) was 2.26 µM and the TGI (HCT-116 colon) was 7.6 µM. It also gave a GI50 (OVCAR-3 ovarian) of 2.09 µM, a TGI (OVCAR-3 ovarian) of 5.67 µM and a GI50 (CCRF-CEM leukemia) of 1.32 µM. For the same compound, the TGI (CCRF-CEM leukemia) was over 100 µM, the GI50 (PC-3 prostate) was 1.9 µM and the TGI (PC-3 prostate) was 5.84 µM.
